Values joined by “and” are separate entries in the source; they are usually repeats but may differ in a detail not shown here. Identical values can stand only once.
Columns and labels:
[1] = target: T1, CHO cells expressing Siglec-6 mutants (C46A, C172A, R to A mutants, F93A, L95A, G175M) (Homo sapiens, UniProt O43699, E87A); experiment: Cell assay (liposome/EV binding, flow cytometry); assay type: cell-based; settings: sheet Figure S28b, 3% GM3-DAG liposomes, E87A;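 note: AF647 fluorescence intensity from 0.1 mol% AF647–PEG45–DSPE in liposomes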
T1 construct: These new CHO cell lines are the full-length versions of the Siglecs; expressed in transfected cells
Experimental: (§1) Mutations were introduced into each Siglec via gene overlap extension PCR mutagenesis (primers were ordered through IDT). Mutagenesis primers can be found in Supplementary Tables 2 and 3 for the critical arginine mutants of the entire Siglec family and the additional Siglec-6 mutants respectively.
(§2) 200,000 cells/well were plated into a 96-well U-bottom microplate and centrifuged at 300 × g for 5 min. The cells were then resuspended in 50 µL of 50 µM liposome/50 µg/mL (protein concentration) of EV solution in DMEM F12 5% FBS and incubated at 37 °C for 30 min. Excess liposomes were then removed via centrifuged at 300 × g for 5 min followed by washing the cells with FACS solution. The cells were then resuspended in (1:250 V/V) anti-Siglec-flow buffer (1% V/V FBS, 500 µM, EDTA Hank’s Balanced Salt Solution pH 7.4), solution and left to rest on ice for 30 min. The cells were then centrifuged again at 300 × g for 5 min and the cells were resuspended in FACS buffer solution and were then ready for analysis by flow cytometry. Information regarding antibody clone, catalog number supplier, label isotype, and dilution can be found in Supplementary Table 6. The Siglec-positive cells were gated on for liposome-binding analysis (Supplementary Fig. 1b).
(§3) Flow cytometry measurements were collected on a 5-laser Fortessa X-20 (BD Bioscience). All the resulting data were analyzed using FlowJo (10.5.3) software (BD Biosciences).

[2] = test system: syncytiotrophoblasts of placental explants; experiment: Liposome uptake assay in the placenta explants (confocal microscopy); assay type: cell-based, human; settings: for liposome binding/uptake, fluorescence signal (replicates): cells not given
[3] = target: T2, R92K Siglec-6 CHO cells (Homo sapiens, UniProt O43699, R92K); experiment: Cell assay (liposome/EV binding, flow cytometry); assay type: cell-based
T2 construct: These new CHO cell lines are the full-length versions of the Siglecs; expressed in transfected cells
Experimental: as §1
as §2, with “The Siglec-positive cells were gated on for liposome-binding analysis (Supplementary Fig. 1b).” left out
as §3

[4] = target: T3, Daudi cells transduced with WT Siglec-6 (Homo sapiens, UniProt O43699); experiment: pHrodo internalization assay by flow cytometry; assay type: cell-based; settings: for liposome internalization signal (replicates): sheet Figure S42b
T3 construct: expressed in transfected cells; host or cells: Daudi cells (human B-cell line), lentiviral transduction
Experimental: Siglec-6 lentivirus was produced as previously reported by Bhattacherjee, A. et al.[72]. Briefly, 1 × 10^6 HEK293T cells were plated in a 6-well dish containing 1.5 mL of DMEM growth medium (Gibco) containing 10% (V/V) fetal bovine serum (FBS; Gibco), 100 U/mL penicillin (Gibco) and 100 µg/mL streptomycin (Gibco). 24 h later, a mixture of 625 ng RP18, 625 ng RP19, 1250 ng hSiglec-6 vector, 7.5 µL TransIT®-LT1 Reagent (Mirus Bio), and Opti-MEM media (Gibco) was added to the HEK293T cells. Cells were incubated with this transfection mixture at 37 °C, 5% CO2 for 72 h. Following transfection, the cell supernatant was harvested and concentrated using Lenti-X concentrator reagent (Takara Bio) following the manufacturer’s instructions.
1.5 × 10^5 Daudi cells were plated in a 24-well plate in 250 µL of RPMI growth medium (Gibco) containing 10% (V/V) fetal bovine serum (FBS; Gibco), 100 U/mL penicillin (Gibco) and 100 µg/mL streptomycin (Gibco). A range of 10X concentrated lentivirus (1, 2, 5, 10 µL) was added to the corresponding wells and incubated for approximately 8 h at 37 °C, 5% CO2 in a tissue culture incubator. After incubation, the media in each well was topped up to 750 µL. Three days post-transduction, 200 µL of cells were plated in a 96-well U-bottom plate and centrifuged at 300 × g for 5 min. The cell pellets were resuspended in 150 µL of flow cytometry buffer (HBSS containing 1% (V/V) FBS, 500 µM EDTA) and the titer of each virus was determined by measuring the mAmentrine+ cells in each well by flow cytometry. The mAmetrine+ cells, ranging from 0.5% to 5%, were re-plated in six-well plates. The mAmetrine+ virally transduced cells were selected for using 300 µg/mL zeocin until the mAmetrine+ population was ≥95%.
Human peripheral blood, taken under an approved institutional ethics protocol, was centrifuged at 1700 × g for 5 min at 4 °C. The upper phase (plasma) was collected and centrifuged at 10,000 × g for 30 min at 4 °C. […]

[5] = target: T3, Daudi cells transduced with WT Siglec-6; experiment: Imaging flow cytometry internalization; assay type: cell-based; settings: 60 min at 4 or 37 °C
Experimental: Approximately 2 × 10^5 Daudi cells/well were plated into a 96-well U-bottom microplate and centrifuged at 300 × g for 5 min. The cell pellets were placed on ice, and 50 µL of 100 µM of liposome or 1:20 µL of EVs in RPMI growth medium (Gibco) containing 10% (V/V) fetal bovine serum (FBS; Gibco), 100 U/mL penicillin (Gibco), and 100 µg/mL streptomycin (Gibco) was added to their corresponding wells. Plates were incubated for 1 h at either 4 or 37 °C. After incubation, plates were centrifuged at 300 × g, 5 min, 4 °C then incubated with fluorescently conjugated anti-Siglec-6 antibody (Alexa Fluor 488; 1:250 dilution; R&D Systems) for 25 min at 4 °C. The plates were centrifuged once more at 300 × g, 4 °C, 5 min and the resulting cell pellet was resuspended in 40 µL of flow buffer (1% FBS, 500 µM EDTA Hank’s Balanced Salt Solution pH 7.4). 5000 events were collected for each sample using the ImageStream®X Mk II Flow cytometer (excitation lasers 488 nm and 642 nm, ×60 magnification). Data analysis was performed using IDEAS software, version 6.2.

[6] = test system: Daudi cells transduced with an empty vector; experiment: pHrodo internalization assay by flow cytometry; assay type: cell-based, human; settings: sheet Figure S42b

T3 sequence (O43699 27-453): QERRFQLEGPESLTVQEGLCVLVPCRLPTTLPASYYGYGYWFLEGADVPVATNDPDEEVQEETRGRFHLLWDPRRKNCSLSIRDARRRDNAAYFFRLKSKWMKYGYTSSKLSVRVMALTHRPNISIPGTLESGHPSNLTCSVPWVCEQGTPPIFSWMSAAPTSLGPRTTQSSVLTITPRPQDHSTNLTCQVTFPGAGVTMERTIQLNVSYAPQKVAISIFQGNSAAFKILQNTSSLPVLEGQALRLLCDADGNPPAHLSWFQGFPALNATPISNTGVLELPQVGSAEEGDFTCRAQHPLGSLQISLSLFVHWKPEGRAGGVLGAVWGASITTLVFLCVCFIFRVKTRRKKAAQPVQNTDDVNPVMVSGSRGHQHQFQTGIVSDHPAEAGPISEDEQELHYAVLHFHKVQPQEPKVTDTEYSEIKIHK
T1 sequence (O43699 27-453 E87A): as the sequence (O43699 27-453) above, with E61A counted along it
T2 sequence (O43699 27-453 R92K): as the sequence (O43699 27-453) above, with R66K counted along it

CCCCCCCCCCCCCCCCOCC(COCCCCCCCCCCCCCCCC)OCc1cn(CCO[C@@H]2O[C@H](CO)[C@@H](O[C@@H]3O[C@H](CO)[C@H](O)[C@H](O[C@]4(C(=O)O)C[C@H](O)[C@@H](NC(C)=O)[C@H]([C@H](O)[C@H](O)CO)O4)[C@H]3O)[C@H](O)[C@H]2O)nn1 [GM3-DAG]
liposome binding, fluorescence signal (replicates) [1]: 2391 and 2152 and 2127
liposome binding/uptake, fluorescence signal (replicates) ([2]; sheet Figure S31, 5% GM3-DAG liposomes + mAb): 5737 and 5556 and 5976
liposome binding/uptake, fluorescence signal (replicates) ([2]; sheet Figure S31, 5% GM3-DAG liposomes, no mAb): 20862 and 18720 and 19576

CCCCCCCCCCCCCCCCOCC(COCCCCCCCCCCCCCCCC)OCc1cn(CCO[C@@H]2O[C@H](CO)[C@@H](O[C@@H]3O[C@H](CO)[C@H](O)[C@H](O[C@]4(C(=O)O)C[C@H](O)[C@@H](NC(C)=O)[C@H]([C@H](O)[C@H](O)CO)O4)[C@H]3O)[C@H](O)[C@H]2O)nn1 [nGL 5]
5 liposome binding gated on identical Siglec-6 expression levels, MFI (Fig. S26e) ([3]; R92K Siglec-6, replicates): 29.25 and 36.25 and 24.25
5 nGLL binding to R92K Siglec-6 CHO cells ([3]; cell assay, expression 42% of WT): minimal binding
puncta of 5 nGLLs on syncytiotrophoblasts compared to naked liposomes ([2]; live human placental explants, 50 μM liposome, 2 h): significantly more puncta
5 nGLL interaction with syncytiotrophoblasts after pre-treatment with anti-Siglec-6 antibody ([2]; placental explants): blocked these interactions
colocalization of 5 nGLLs with Siglec-6 compared to naked liposomes ([2]; placental explants): strong colocalization
pHrodo signal of 5 nGLLs in Siglec-6 Daudi cells ([4]; independent of Arg122, only at 37 °C): time-dependent increase in pHrodo signal
internalization of 5 nGLLs by imaging flow cytometry [5]: internalize 5 nGLLs at 37 °C but not 4 °C

GM3
liposome internalization signal (replicates) ([4]; WT-4): 16.4 and 15.8 and 17.6 and 19.4
liposome internalization signal (replicates) ([4]; WT-37): 30.6 and 27.6 and 33.7 and 27.8
liposome internalization signal (replicates) ([6]; Emp-4 (empty vector, 4)): 6.1 and 7 and 8.7 and 6.3
liposome internalization signal (replicates) ([6]; emp-37 (empty vector, 37)): 11.2 and 11.5 and 13.6 and 13.8
